Molecular target: T1, human CCR10 (Homo sapiens, UniProt P46092)
T1 construct: expressed in transfected cells; host or cells: KJMGER8 cells (Namalwa cell-derived line), beta-estradiol-induced; hCCR10G16 cells
T1 sequence (P46092 1-362): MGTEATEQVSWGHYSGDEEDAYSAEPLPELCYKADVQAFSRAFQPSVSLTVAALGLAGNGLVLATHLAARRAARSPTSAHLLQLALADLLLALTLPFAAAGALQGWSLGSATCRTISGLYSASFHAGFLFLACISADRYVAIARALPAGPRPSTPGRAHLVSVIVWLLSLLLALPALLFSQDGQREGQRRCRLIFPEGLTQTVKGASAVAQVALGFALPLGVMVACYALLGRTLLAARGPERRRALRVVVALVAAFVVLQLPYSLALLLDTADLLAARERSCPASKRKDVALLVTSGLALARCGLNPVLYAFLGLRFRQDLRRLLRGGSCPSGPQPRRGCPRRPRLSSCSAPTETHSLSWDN
Test: CCR10 antagonistic effect: calcium assay of human CCR10 (CTACK-induced increase of intracellular calcium in hCCR10G16 cells)
Assay type: cell-based
Conditions: at a concentration of not more than 1000 nmol/L; human CCR10-expressing hCCR10G16 cells, 300 nmol/L CTACK added; read-out: inhibition of increase in the calcium ion concentration
Method: [Experimental Example 1] CCR10 Antagonistic Effect
(1) Preparation of Human CCR10-Inducible Expression Plasmid
A CCR10-inducible expression plasmid was prepared according to a known method [Analytical Biochemistry, 2006, vol. 400, page 163]. A DNA encoding human CCR10 was obtained by PCR. Using human chromosome DNA (100 ng; manufactured by Clontech) as a template, synthetic DNA having the sequences depicted in SEQ ID NOs: 1 and 2 as a human CCR10 cDNA specific primer, and Pyrobest DNA Polymerase (manufactured by TAKARA SHUZO CO. LTD.) as an enzyme, a DNA encoding human CCR10 was obtained by PCR. As a buffer for PCR, the buffer attached to the enzyme to be used, which was diluted 10-fold with deionized water, was used. Using Thermal Cycler DNA Engine (manufactured by MJ Research), PCR was performed by 35 cycles of reactions composed of an incubation at 94° C. for 30 sec, at an anneal temperature of 58° C. for 30 sec, and at 72° C. for 1 min after treating at 90° C. for 2 min.
The amplified PCR fragment was cleaved with HindIII and NotI, then a human CCR10 DNA fragment was recovered by the agarose gel electrophoresis method. The fragment was incorporated between the corresponding restriction enzyme sites (HindIII-NotI) of an inducible expression vector to construct a human CCR10-inducible expression plasmid.
Using a primer specific to the sequence of plasmid (synthetic DNA having the sequences shown in SEQ ID NOs: 3 and 4), the sequence of human CCR10 DNA region was determined. For the determination of the base sequence, DNA Sequencer 377 (manufactured by Perkin Elmer. Co.) and a reaction kit (ABI Prism (registered trade mark) BigDye (registered trade mark) Terminator Cycle Sequencing Ready Reaction kit: manufactured by Applied Biosystems) were used. The sequence of human CCR10 DNA was identical with the sequence (NM 016602) registered in GenBank.
(2) Preparation of Human CCR10 Expressing Cell for Calcium Assay
Cells for detecting signals from human CCR10 in calcium assay were prepared. According to a known method [Analytical.Biochemistry (Analy Biochem), 2006, vol. 400, page 163], human CCR10-inducible expressing cells whose host cell is KJMGER8 cell (Namalwa cell-derived cell line) were prepared. Human CCR10-inducible expression plasmid produced above and Gα16 expression plasmid were co-transfected into the KJMGER8 cells by the electroporation method [Cytotechnology, 1990, vol. 3, page 133], whereby the signals from human CCR10 could be detected by calcium assay (hereinafter to be referred to as hCCR10G16 cell). A Ga16 expression plasmid was produced by incorporating human Ga16 DNA into expression vector pAMoh (WO 03/087366). Expression of human CCR10 was induced by cultivating hCCR10G16 cells in the presence of 10 nmol/L β-estradiol (manufactured by Sigma Ltd.) for 24 hr.
(3) Calcium Assay of Human CCR10
Cells expressing human CCR10 induced by the above-mentioned method were suspended in RPMI1640 medium (manufactured by Invitrogen), and adjusted to a cell density of 2×10^6 cells/mL. The cells were blended with an equivalent volume of a loading buffer prepared according to the attached protocol of Fluo-3 calcium assay kit (manufactured by Molecular Devices Corporation), and incubated at 37° C. for several dozen minutes. This mixture was dispensed to a 384 well clear-bottom plate (manufactured by Corning Incorporated) at 40 μL/well. To this plate was added a solution of the test compound in dimethyl sulfoxide (DMSO), which was diluted 37-fold with RPMI1640 medium, at 5 μL/well, and the mixture was incubated at 37° C. for 30 min. 300 nmol/L human recombinant CTACK (manufactured by R&D Systems, Inc.) diluted with RPMI1640 medium containing 1 w/v % bovine serum albumin (manufactured by Sigma Ltd.) was added at 5 μL/well and, variation of intracellular calcium ion concentration for about 5 min after the addition was measured by a screening apparatus (FDSS; manufactured by Hamamatsu Photonics K.K.). […]

CCc1ccccc1Nc1c(C(=O)N2CCC(c3ccc(F)cc3)CC2)cnc(S(=O)(=O)Nc2ccon2)c1C [Compound 239, 4-(2-ethylphenylamino)-5-[4-(4-fluorophenyl)piperidine-1-carbonyl]-N-(isoxazol-3-yl)-3-methylpyridine-2-sulfonamide]
inhibition at up to 1 µM: ≥ 50%

COc1ccc(Nc2cc(S(N)(=O)=O)ncc2C(=O)N2CCC(c3ccc(F)cc3)CC2)cc1F [Compound 86, 4-(3-fluoro-4-methoxyphenylamino)-5-[4-(4-fluorophenyl)piperidine-1-carbonyl]pyridine-2-sulfonamide]
inhibition at up to 1 µM: ≥ 50%

Cc1cc([N+](=O)[O-])ccc1Nc1c(C(=O)N2CCC(c3ccc(F)cc3)CC2)cnc(S(N)(=O)=O)c1Cl [Compound 318, 3-chloro-5-[4-(4-fluorophenyl)piperidine-1-carbonyl]-4-(2-methyl-4-nitrophenylamino)pyridine-2-sulfonamide]
inhibition at up to 1 µM: ≥ 50%

Cc1c(S(=O)(=O)Nc2ccon2)ncc(C(=O)N2CCC(c3ccc(F)cc3)CC2)c1Nc1ccccc1F [Compound 255, 5-[4-(4-fluorophenyl)piperidine-1-carbonyl]-4-(2-fluorophenylamino)-N-(isoxazol-3-yl)-3-methylpyridine-2-sulfonamide]
inhibition at up to 1 µM: ≥ 50%

Cc1ccc(Cl)cc1Nc1c(C(=O)N2CCC(c3ccccc3)CC2)cnc(S(N)(=O)=O)c1Cl [Compound 309, 3-chloro-4-(5-chloro-2-methylphenylamino)-5-(4-phenylpiperidine-1-carbonyl)pyridine-2-sulfonamide]
inhibition at up to 1 µM: ≥ 50%

Cc1cc(F)ccc1Nc1cc(S(=O)(=O)Nc2c(C)nn(C)c2C)ncc1C(=O)N1CCC(c2ccc(F)cc2)CC1 [Compound 152, 4-(4-fluoro-2-methylphenylamino)-5-[4-(4-fluorophenyl)piperidine-1-carbonyl]-N-(1,3,5-trimethyl-1H-pyrazol-4-yl)pyridine-2-sulfonamide]
inhibition at up to 1 µM: ≥ 50%

Cc1cc(F)ccc1Nc1cc(S(=O)(=O)Nc2nccs2)ncc1C(=O)N1CCC(c2ccc(F)cc2)CC1 [Compound 148, 4-(4-fluoro-2-methylphenylamino)-5-[4-(4-fluorophenyl)piperidine-1-carbonyl]-N-(thiazol-2-yl)pyridine-2-sulfonamide]
inhibition at up to 1 µM: ≥ 50%

NS(=O)(=O)c1ncc(C(=O)N2CCC3(CC2)COc2ccccc23)c(Nc2cccc(Cl)c2)c1Cl [Compound 307, 3-chloro-4-(3-chlorophenylamino)-5-(2H-spiro[benzofuran-3,4′-piperidine]-1′-ylcarbonyl)pyridine-2-sulfonamide]
inhibition at up to 1 µM: ≥ 50%

NS(=O)(=O)c1ncc(C(=O)N2CCC(c3ccc(F)cc3)CC2)c(Nc2cc(F)c(F)cc2F)c1Cl [Compound 34, 3-chloro-5-[4-(4-fluorophenyl)piperidine-1-carbonyl]-4-(2,4,5-trifluorophenylamino)pyridine-2-sulfonamide]
inhibition at up to 1 µM: ≥ 50%

N#Cc1ccc([N+](=O)[O-])cc1Nc1c(C(=O)N2CCC(c3ccc(F)cc3)CC2)cnc(S(N)(=O)=O)c1Cl [Compound 322, 3-chloro-4-(2-cyano-5-nitrophenylamino)-5-[4-(4-fluorophenyl)piperidine-1-carbonyl]pyridine-2-sulfonamide]
inhibition at up to 1 µM: ≥ 50%

Cc1c(S(N)(=O)=O)ncc(C(=O)N2CCC(c3ccc(F)cc3)CC2)c1NCc1cccnc1 [Compound 221, 5-[4-(4-fluorophenyl)piperidine-1-carbonyl]-3-methyl-4-(pyridin-3-ylmethylamino)pyridine-2-sulfonamide]
inhibition at up to 1 µM: ≥ 50%

COc1ccc(Nc2c(C(=O)N3CCC(c4ccc(F)cc4)CC3)cnc(S(N)(=O)=O)c2Cl)c(C)c1 [Compound 178, 3-chloro-5-[4-(4-fluorophenyl)piperidine-1-carbonyl]-4-(4-methoxy-2-methylphenylamino)pyridine-2-sulfonamide]
inhibition at up to 1 µM: ≥ 50%

Cc1cc(F)ccc1Nc1cc(S(=O)(=O)N2CCCC2)ncc1C(=O)N1CCC(c2ccc(F)cc2)CC1 [Compound 119, [4-(4-fluoro-2-methylphenylamino)-6-(pyrrolidin-1-ylsulfonyl)pyridin-3-yl][4-(4-fluorophenyl)piperidin-1-yl]methanone]
inhibition at up to 1 µM: ≥ 50%

NS(=O)(=O)c1ncc(C(=O)N2CCC(c3ccc(F)cc3)CC2)c(N[C@H]2C[C@@H]3CC[C@H]2O3)c1Cl [Compound 217, 4-((1R,2S,4S)-7-oxabicyclo[2.2.1]heptan-2-ylamino)-3-chloro-5-[4-(4-fluorophenyl)piperidine-1-carbonyl]pyridine-2-sulfonamide]
inhibition at up to 1 µM: ≥ 50%

Cc1cc(F)ccc1Nc1cc(S(=O)(=O)Nc2cscn2)ncc1C(=O)N1CCC(c2ccc(F)cc2)CC1 [Compound 154, 4-(4-fluoro-2-methylphenylamino)-5-[4-(4-fluorophenyl)piperidine-1-carbonyl]-N-(thiazol-4-yl)pyridine-2-sulfonamide]
inhibition at up to 1 µM: ≥ 50%

CCCNC(=O)NS(=O)(=O)c1cc(NCc2ccccc2)c(C(=O)N2CCC(c3ccc(F)cc3)CC2)cn1 [Compound 16, 4-(benzylamino)-5-[4-(4-fluorophenyl)piperidine-1-carbonyl]-N-(propylcarbamoyl)pyridine-2-sulfonamide]
inhibition at up to 1 µM: ≥ 50%

Cc1cccc(Nc2c(C(=O)N3CC=C(c4ccc(F)cc4)CC3)cnc(S(N)(=O)=O)c2Cl)c1 [Compound 202, 3-chloro-5-[4-(4-fluorophenyl)-1,2,3,6-tetrahydropyridine-1-carbonyl]-4-(m-tolylamino)pyridine-2-sulfonamide]
inhibition at up to 1 µM: ≥ 50%

CCNC(=O)NS(=O)(=O)c1ncc(C(=O)N2CCC(c3ccc(F)cc3)CC2)c(Nc2ccc(F)cc2C)c1Cl [Compound 43, 3-chloro-N-(ethylcarbamoyl)-4-(4-fluoro-2-methylphenylamino)-5-[4-(4-fluorophenyl)piperidine-1-carbonyl]pyridine-2-sulfonamide]
inhibition at up to 1 µM: ≥ 50%

Cc1ccccc1Nc1c(C(=O)N2CCC(c3ccc(F)cc3)CC2)cnc(S(N)(=O)=O)c1C [Compound 331, 5-[4-(4-fluorophenyl)piperidine-1-carbonyl]-3-methyl-4-(o-tolylamino)pyridine-2-sulfonamide]
inhibition at up to 1 µM: ≥ 50%

Cc1cc(F)ccc1Nc1cc(S(=O)(=O)Nc2cc(C(C)(C)C)on2)ncc1C(=O)N1CCC(c2ccc(F)cc2)CC1 [Compound 159, N-(5-tert-butylisoxazol-3-yl)-4-(4-fluoro-2-methylphenylamino)-5-[4-(4-fluorophenyl)piperidine-1-carbonyl]pyridine-2-sulfonamide]
inhibition at up to 1 µM: ≥ 50%
